Source: patent publication US12091425B2 (AMGEN INC., priority 2016, dated 2024)

Legend:
[1] = molecular target: T1, Mcl-1/Bim interaction, recombinant human Mcl-1 (171-327) (Homo sapiens, UniProt Q07820); assay: Cell free Mcl-1: Bim Affinity Assay (Mcl-1 HTRF); assay type: binding
T1 construct: made in house
Method in brief: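 Read-out is time-resolved FRET after overnight incubation, using a biotin-labelled peptide from human Bim (51-76) as the binding partner; IC50 was derived from competition curves.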

[2] = test system: OPM-2 human multiple myeloma cell line; assay: Cell Viability Assay (OPM-2 10 FBS); assay type: cell-based; details: OPM-2 cells, CellTiter-Glo
Method in brief: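 IC50 from 4-parameter logistic fit of CellTiter-Glo luminescence. 3000 cells/well, 10% FBS medium, serial compound dilutions, 16 h, 37 °C/5% CO2; read 25 min post-reagent.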

[3] = TR-FRET, 0.1 nM Mcl-1 (171-327), 0.05 nM biotin-Bim (51-76)
[4] = Homo sapiens, OPM-2, 16 h, 16 h
[5] = cell free Mcl-1:Bim TR-FRET, recombinant human Mcl-1 (171-327)

T1 sequence (Q07820 171-327): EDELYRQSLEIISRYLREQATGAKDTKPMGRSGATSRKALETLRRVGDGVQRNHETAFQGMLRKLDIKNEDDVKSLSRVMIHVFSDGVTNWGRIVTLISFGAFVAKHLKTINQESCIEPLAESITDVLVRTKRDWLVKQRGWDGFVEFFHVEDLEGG

IC50 [1, 3] [nM] | IC50 [2, 4] [nM] | IC50 [1, 5] [nM] | Structure (SMILES) | also measured
0.151 | 2280 |  | C[C@@H]1[C@@H](C)C/C=C/[C@H](OCC(=O)N2CC(O)C2)[C@@H]2CC[C@H]2CN2C[C@@]3(CCCc4cc(Cl)ccc43)COc3ccc(cc32)C(=O)NS1(=O)=O [Example 304, (1S,3′R,6′R,7′S,8′E,11′S,12′R)-6-chloro-7′-(2-(3-hydroxy-1-azetidinyl)-2-oxoethoxy)-11′,12′-dimethyl-3,4-dihydro-2H,15′H-spiro[naphthalene-1,22′-[20]oxa[13]thia[1,14]diazatetracyclo[14.7.2.0^3,6.0^19,24]pentacosa [8,16,18,24]tetraen]-15′-one 13′,13′-dioxide] | 
0.359 | 248 |  | COCCO[C@H]1/C=C/C[C@H](C)NS(=O)(=O)NC(=O)c2ccc3c(c2)N(C[C@@H]2CC[C@H]21)C[C@@]1(CCCc2cc(Cl)ccc21)CO3 [Example 68, (1S,3′R,6′R,7′S,8′E,11′S)-6-chloro-7′-(2-methoxyethoxy)-11′-methyl-3,4-dihydro-2H,15′H-spiro[naphthalene-1,22′-[20]oxa[13]thia[1,12,14]triazatetracyclo[14.7.2.0^3,6.0^19,24]pentacosa[8,16,18,24]tetraen]-15′-one 13′,13′-dioxide] | 
30.8 | 17800 |  | C[C@H]1[C@H]2/C=C/[C@H](O)[C@@H]3CC[C@H]3CN3C[C@@]4(CCCc5cc(Cl)ccc54)COc4ccc(cc43)C(=O)NS(=O)(=O)[C@H]1CCC2 (single isomer, unassigned) [Example 111] | 
 | 759 | 1.02 | CC(C)OC(=O)C[C@@H]1[C@@H](C)/C=C\C[C@H](O)[C@@H]2CC[C@H]2CN2C[C@@]3(CCCc4cc(Cl)ccc43)COc3ccc(cc32)C(=O)NS1(=O)=O [Example 569] | 
 | 170 | 0.244 | CC(=O)NCCO[C@H]1/C=C/C[C@H](C)[C@@H](C)S(=O)(=O)NC(=O)c2ccc3c(c2)N(C[C@@H]2CC[C@H]21)C[C@@]1(CCCc2cc(Cl)ccc21)CO3 [Example 732, N-(2-(((1S,3′R,6′R,7′S,8′E,11′S,12′R)-6-chloro-11,12′-dimethyl-13′, 13′-dioxido-15′-oxo-3,4-dihydro-2H-spiro[naphthalene-1,22′-[20]oxa[13]thia[1,14]diazatetracyclo[14.7.2.0^3,6.0^19,24]pentacosa[8,16,18,24]tetraen]-7′-yl)oxy)ethyl)acetamide] | 
 | 311 | 1.5 | C[C@@H]1[C@@H](C)C/C=C/[C@H](OCCCl)[C@@H]2CC[C@H]2CN2C[C@@]3(CCCc4cc(Cl)ccc43)COc3ccc(cc32)C(=O)NS1(=O)=O [Example 511, (1S,3′R,6′R,7′S,8′E,11′S,12′R)-6-chloro-7′-(2-chloroethoxy)-11′,12′-dimethyl-3,4-dihydro-2H,15′H-spiro[naphthalene-1,22′-[20]oxa[13]thia[1,14]diazatetracyclo[14.7.2.0^3,6.0^19,24]pentacosa [8,16,18,24]tetraen]-15′-one 13′,13′-dioxide] | 
 | 2520 | 4.87 | C[C@@H]1[C@@H](C)C/C=C/[C@H](OCCN2CCCC(F)(F)C2)[C@@H]2CC[C@H]2CN2C[C@@]3(CCCc4cc(Cl)ccc43)COc3ccc(cc32)C(=O)NS1(=O)=O [Example 515, (1S,3′R,6′R,7′S,8′E,11′S,12′R)-6-chloro-7′-(2-(3,3-difluoro-1-piperidinyl)ethoxy)-11′,12′-dimethyl-3,4-dihydro-2H,15′H-spiro[naphthalene-1,22′-[20]oxa[13]thia[1,14]diazatetracyclo[14.7.2.0^3,6.0^19,24]pentacosa [8,16,18,24]tetraen]-15′-one 13′,13′-dioxide] | 
0.246 | 166 |  | COCCOCCN1[C@@H](C)C/C=C/[C@H](O)[C@@H]2CC[C@H]2CN2C[C@@]3(CCCc4cc(Cl)ccc43)COc3ccc(cc32)C(=O)NS1(=O)=O [Example 25, (1S,3′R,6′R,7′S,8′E,11′S)-6-chloro-7′-hydroxy-12′-(2-(2-methoxyethoxy)ethyl)-11′-methyl-3,4-dihydro-2H,15′H-spiro[naphthalene-1,22′-[20]oxa[13]thia[1,12,14]triazatetracyclo[14.7.2.0^3,6.0^19,24]pentacosa[8,16,18,24]tetraen]-15′-one 13,13′-dioxide] | 
2.58 | 13000 |  | O=C1NS(=O)(=O)[C@H]2C[C@@H](CC[C@H](O)[C@@H]3CC[C@H]3CN3C[C@@]4(CCCc5cc(Cl)ccc54)COc4ccc1cc43)C2 [Example 101, (1S,3′R,6′R,7′S,10′S,12′S)-6-chloro-7′-hydroxy-3,4-dihydro-2H,15′H-spiro[naphthalene-1,22′-[20]oxa[13]thia[1,14]diazapentacyclo[14.7.2.1^10,120^3,6.0^19,24]hexacosa[16,18,24]trien]-15′-one 13′,13′-dioxide] | 
3.89 | 5580 |  | O=C1NS(=O)(=O)[C@H]2CCCC[C@@H]2C/C=C/[C@H](O)[C@@H]2CC[C@H]2CN2C[C@@]3(CCCc4cc(Cl)ccc43)COc3ccc1cc32 (single isomer, unassigned) [Example 332] | 
1.79 |  |  | COC[C@H]1[C@@H](C)C/C=C/[C@H](OC)[C@@H]2CC[C@H]2CN2C[C@@]3(CCCc4cc(Cl)ccc43)COc3ccc(cc32)C(=O)NS1(=O)=O (single isomer, unassigned) [Example 461] | IC50 ([2]; 16 h): 775 nM
1.65 | 1250 |  | CC1CC=CC(OCC(C)N2CCOCC2)C2CCC2CN2CC3(CCCc4cc(Cl)ccc43)COc3ccc(cc32)C(=O)NS(=O)(=O)C1CC1CC1 (centres unmarked) [Example 387] | 
0.349 |  |  | CC[C@@H]1CC/C=C/[C@H](OCc2nnc(C)o2)[C@@H]2CC[C@H]2CN2C[C@@]3(CCCc4cc(Cl)ccc43)COc3ccc(cc32)C(=O)NS1(=O)=O [Example 966, (1S,3′R,6′R,7′S,8′E,12′R)-6-chloro-12′-ethyl-7′-((5-methyl-1,3,4-oxadiazol-2-yl)methoxy)-3,4-dihydro-2H,15′H-spiro[naphthalene-1,22′-[20]oxa[13]thia[1,14]diazatetracyclo[14.7.2.0^3,6.0^19,24]pentacosa [8,16,18,24]tetraen]-15′-one 13′,13′-dioxide] | IC50 ([2]; Homo sapiens, OPM-2, 16 h, 16 h incubation): 754 nM
0.366 | 2790 |  | CO[C@H]1/C=C/[C@H](CC#N)C[C@@H](C)S(=O)(=O)NC(=O)c2ccc3c(c2)N(C[C@@H]2CC[C@H]21)C[C@@]1(CCCc2cc(Cl)ccc21)CO3 [Example 203, ((1S,3′R,6′R,7′S,8′E,10′R,12′R)-6-chloro-7′-methoxy-12′-methyl-13′,13′-dioxido-15′-oxo-3,4-dihydro-2H-spiro[naphthalene-1,22′-[20]oxa[13]thia[1,14]diazatetracyclo[14.7.2.0^3,6.0^19,24]pentacosa [8,16,18,24]tetraen]-10′-yl)acetonitrile] | 
2.96 | 18200 |  | CN(C)CCNC(=O)CO[C@@H]1/C=C/CCCS(=O)(=O)NC(=O)c2ccc3c(c2)N(C[C@@H]2CC[C@H]21)C[C@@]1(CCCc2cc(Cl)ccc21)CO3 [Example 212, 2-(((1S,3′R,6′R,7′R,8′E)-6-chloro-13′,13′-dioxido-15′-oxo-3,4-dihydro-2H-spiro[naphthalene-1,22′-[20]oxa[13]thia[1,14]diazatetracyclo[14.7.2.0^3,6.0^19,24]pentacosa [8,16,18,24]tetraen]-7′-yl)oxy)-N-(2-(dimethylamino)ethyl)acetamide] | 
2.1 | 941 |  | CC[C@@H]1CC/C=C/[C@H](OC(C)=O)[C@@H]2CC[C@H]2CN2C[C@@]3(CCCc4cc(Cl)ccc43)COc3ccc(cc32)C(=O)NS1(=O)=O [Example 426, (1S,3′R,6′R,7′S,8′E,12′R)-6-chloro-12′-ethyl-13′,13′-dioxido-15′-oxo-3,4-dihydro-2H-spiro[naphthalene-1,22′-[20]oxa[13]thia[1,14]diazatetracyclo[14.7.2.0^3,6.0^19,24]pentacosa [8,16,18,24]tetraen]-7′-yl acetate] | 
0.188 | 160 |  | C[C@@H]1CC/C=C/[C@H](O[C@@H]2CCOC2=O)[C@@H]2CC[C@H]2CN2C[C@@]3(CCCc4cc(Cl)ccc43)COc3ccc(cc32)C(=O)NS1(=O)=O (single isomer, unassigned) [Example 414] | 
0.321 | 444 |  | C[C@H]1C/C=C/[C@H](O)[C@@H]2CC[C@H]2CN2C[C@@]3(CCCc4cc(Cl)ccc43)COc3ccc(cc32)C(=O)NS(=O)(=O)N1C[C@@H]1CCCO1 (single isomer, unassigned) [Example 49] | 

Structure (SMILES) | IC50 [1, 3] [nM] | IC50 [2, 4] [nM] | IC50 [1, 5] [nM] | also measured
CCC1CCC=CC(OC(C)C(N)=O)C2CCC2CN2CC3(CCCc4cc(Cl)ccc43)COc3ccc(cc32)C(=O)NS1(=O)=O (mixture of isomers) [Example 1006] | 0.81 |  |  | IC50 ([2]; 16 h incubation): 11600 nM
CN(C)S(=O)(=O)N1CCN(C(=O)C[C@@H]2CC/C=C/[C@H](O)[C@@H]3CC[C@H]3CN3C[C@@]4(CCCc5cc(Cl)ccc54)COc4ccc(cc43)C(=O)NS2(=O)=O)CC1 (single isomer, unassigned) [Example 631] |  |  | 0.298 | IC50 ([2]; 16 h): 2530 nM
O=C1NS(=O)(=O)C[C@@H](C2CC2)C/C=C/[C@H](O)[C@@H]2CC[C@H]2CN2C[C@@]3(CCCc4cc(Cl)ccc43)COc3ccc1cc32 (single isomer, unassigned) [Example 683] |  |  | 2.31 | IC50 ([2]; 16 h): 2090 nM
CO[C@H](C)C[C@@H]1[C@@H](C)C/C=C/[C@H](O)[C@@H]2CC[C@H]2CN2C[C@@]3(CCCc4cc(Cl)ccc43)COc3ccc(cc32)C(=O)NS1(=O)=O (single isomer, unassigned) [Example 540] |  |  | 0.236 | IC50 ([2]; 16 h): 94.1 nM
